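Assay format: 96-well plates, 48-hour exposure. GI50 is the concentration that inhibits growth by half. At the TGI there is no net growth.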
Assays:
Test in all cases: growth of human tumour cells (NCI), 48 h
[1] = system: CCRF-CEM leukemia
[2] = system: COLO 205 colon
[3] = system: HCT-15 colon
[4] = system: HOP-92 NSCLC
[5] = system: MCF7 breast
[6] = system: NCI-H226 lung
[7] = system: SK-MEL-5 melanoma
[8] = system: SNB-19 CNS
[9] = system: T-47D breast
[10] = system: U251 CNS

SMILES	GI50 [1] [µM]	TGI [1] [µM]	GI50 [2] [µM]	TGI [2] [µM]	GI50 [3] [µM]	TGI [3] [µM]	GI50 [4] [µM]	TGI [4] [µM]	GI50 [5] [µM]	TGI [5] [µM]	GI50 [6] [µM]	TGI [6] [µM]	GI50 [7] [µM]	TGI [7] [µM]	GI50 [8] [µM]	TGI [8] [µM]	GI50 [9] [µM]	TGI [9] [µM]	GI50 [10] [µM]	TGI [10] [µM]
COc1cc(-c2nn(-c3cccc(NC(=O)c4ccccc4)c3)cc2-c2ccncc2)ccc1Cl	0.492	> 100	0.522	3.23	0.579	> 100	0.269	2.06	0.344	> 100	3.3	> 100	0.259	0.945	1.37	> 100	0.843	> 100	0.592	24.4
NC(=S)N/N=C\c1nccc2c(C(F)(F)F)cccc12	0.278	12.1	0.237	10.8	0.315	19.2	0.226	1.35	0.317	13.3	0.259	2.39	0.183	0.921	0.382	> 100	0.335	25.7	0.224	8.4
COc1cc(-c2nc3sccn3c2-c2ccnc(NCCNS(=O)(=O)c3ccc(F)cc3)n2)ccc1F	0.643	> 100	1.98	> 100	2.33	> 100	2.49	> 100	2	> 100	1.95	6.05	1.28	2.63	5.33	> 100	0.634	35.9	4.23	> 100
CN(C)c1ccc(/C=N/NC(=S)Nc2ccccc2)cc1	–	> 100	–	> 100	–	> 100	–	> 100	–	> 100	–	> 100	–	> 100	–	> 100	–	> 100	–	> 100
C=C(C)C(=O)O[C@@H]1C[C@@]2(C)O[C@@H]2C[C@H](O)/C(C)=C/[C@H]2OC(=O)C(=C)[C@@H]21	–	63.6	–	> 100	–	> 100	–	> 100	–	> 100	–	> 100	–	> 100	–	> 100	–	> 100	–	> 100
CC(=O)OCc1ccc2c(c1)C(O)NC(=O)O2 (centres undefined)	–	40.4	–	> 100	–	> 100	–	> 100	–	> 100	–	> 100	–	> 100	–	> 100	–	> 100	–	> 100
COc1ccc2ncnc(Nc3ccc(OCc4ccccc4)cc3)c2c1	8.49	> 25	7.96	> 25	5.61	> 25	2.92	16.9	7.49	> 25	8.1	> 25	4.62	11.8	9.78	> 25	5.37	> 25	8.54	> 25
CC(=C(c1ccc(OCCN2CCCCC2)cc1)c1ccc(OCCN2CCCCC2)cc1)c1ccc(Cl)cc1	0.493	1.56	0.46	0.921	0.34	0.685	0.343	0.711	0.297	0.682	0.457	0.962	0.443	0.793	0.438	0.81	0.43	1.04	0.387	0.747
COc1ccc(CN2C(=O)C(Cl)=C(Nc3cccc(C(F)(F)F)c3)C2=O)cc1	2.54	17.4	5.07	18.8	3.69	17.6	0.885	27	2.7	17.2	2.57	17.4	4.38	18.5	5.09	63.5	3.88	21.5	2.75	17
CCNC(=O)C#Cc1ccc2c(C(=Nc3ccc(CN(C)C)cc3)c3ccccc3)c(O)[nH]c2c1	0.00204	5.58	0.00363	0.0711	0.392	4.62	0.00812	0.0532	0.0458	4.59	0.314	> 10	0.307	1.84	0.206	> 5.9	3.21	> 6.87	0.376	2.9
Nc1nc2[nH]cc(CCc3ccc(C(=O)N[C@@H](CCC(=O)O)C(=O)O)cc3)c2c(=O)[nH]1	0.211	> 100	> 34.6	> 100	–	> 100	–	> 100	0.0246	> 100	–	> 100	–	> 100	–	> 100	–	> 100	14.6	> 100
Cc1ccc(-c2nc(N3CCNCC3)c3oc(-c4ccc(C)cc4)nc3n2)cc1	1.49	4.04	1.98	4.11	1.72	3.28	11.5	26.5	1.66	3.53	> 44.1	> 64.7	> 39.2	> 53.9	2.6	7.02	25.7	> 61.1	1.83	3.32
Cc1nnc2ccnn2c1C	> 100	> 100	> 100	> 100	> 100	> 100	> 100	> 100	> 100	> 100	> 100	> 100	23.8	> 100	> 100	> 100	> 100	> 100	> 100	> 100
OC(c1cc(C(F)(F)F)nc2c(C(F)(F)F)cccc12)C1CCCCN1 (centres undefined)	3.04	9.13	1.83	3.3	3.51	10.9	1.01	3.69	1.85	3.49	1.8	3.7	1.68	3.07	2.75	8.22	1.76	4.11	1.79	4.25
CC(=O)Nc1cc2ccc(=O)oc2cc1Cl	–	> 100	–	> 100	–	> 100	–	> 100	–	> 100	–	> 100	–	> 100	–	> 100	–	> 100	–	> 100
CN1CCN(c2ccc(Nc3ncc(Cl)c(NC[C@@H]4CCCO4)n3)cc2)CC1	0.466	9.04	0.547	2.96	2.04	> 100	1.68	6.44	0.683	26.9	0.266	6.47	2.52	13.6	3.69	> 100	5.8	58.3	2	49.1
O=C1c2c(F)c(F)c(F)c(F)c2C(=O)N1c1ccc(F)cc1F	0.958	6.82	10.9	35.7	2.57	7.43	13.8	31.9	12.9	> 55.9	17.2	50.8	13.1	30.6	16.8	39.8	19.7	46.8	2.55	7.95
CC(C)[C@@H]1NC(=O)[C@]2(C)CSC(=N2)c2ccnc(c2)CNC(=O)C[C@@H](/C=C/CCS)OC1=O	0.574	> 100	0.717	2.41	9.1	> 100	0.363	2.81	0.708	> 100	0.458	12.4	0.0715	0.323	0.283	> 39.4	1.73	6.91	0.107	0.73
CN(C)CC(O)c1ccc(/C=C/c2ccc(Cl)cc2)cc1 (centres undefined)	2.26	4.88	1.71	3.17	1.62	3.32	1.26	3.13	1.63	3.19	11.9	27.3	3.49	13.7	2.88	10.4	3.76	16.6	1.53	2.86
COC(=O)[C@]12CC[C@@H](C)[C@H](C)[C@@H]1C1=CC[C@@H]3[C@@]4(C)C[C@@H](O)[C@H](O)[C@@](C)(CO)[C@@H]4[C@H](O)C[C@@]3(C)[C@]1(C)CC2	7.77	36.9	14.8	31.2	12.5	28.4	12.9	27.9	12.1	41	17.8	45	15.3	28.9	13.2	38.9	7.23	29.1	17.2	40.9
